Non-standard residues stand in square brackets, D forms with d. No end group written: not given here. pY = N[C@@H](Cc1ccc(OP(=O)(O)O)cc1)C(=O)O
Assays:
human CD34+ cells [1] = assay: Culture of human bone marrow or umbilical cord blood CD34+ cells in PVA medium, proliferation rate by cell count and flow cytometry; settings: for ratio of number of cells at day 7 relative to first day of culture: TPO replaced with TPO receptor agonist; for proliferation rate of total cells and CD34+ cells relative to start of culture: neither SCF nor TPO, 20 μM PI3Ka, 0.1 μM TPOago or both
Source text: The cells were dispensed to a 24-well plate at 0.2 to 1.0×10^5 cells per well, TPO was removed from a culture medium for human hematopoietic stem cells and replaced with any of the above-mentioned TPO receptor agonists (hereinafter, may be referred to as “TPOago”) to perform the experiment. The ratio of the number of cells at day 7 of culture relative to the first day of culture was obtained.
Subsequently, whether or not SCF and TPO can be replaced with PI3Ka and a TPO receptor agonist in the absence of albumin and in the presence of PVA was examined. In the following example, butyzamide was used as a TPO receptor agonist. […] Seven days later, the number of total cells was obtained, and the number of CD34+ cells was obtained by flow cytometry. Then, the proliferation rate compared with the start of culture was obtained.
Further, subsequently, a culture experiment of human hematopoietic stem cells was performed in a culture medium comprising neither SCF nor TPO to which 20 μM PI3Ka or 0.1 μM TPOago or both were added.
Further, subsequently, which cell population easily proliferated in a medium in which SCF and TPO were replaced with PI3Ka and TPOago was examined. CD34^+ cells isolated from given fresh umbilical cord blood using microbeads as described above were used in the culture experiment.
The cells were dispensed to a 24-well plate at 0.2×10^5 to 1.0×10^5 cells per well, and CD34^+ cells were cultured in the prepared media.

Mpl32D cells = assay: Culture with TPO receptor agonists as TPO replacements, with albumin or PVA; type: cell-based, human; settings: 0.1 μM butyzamide, 3 μg/mL eltrombopag, 3 μM avatrombopag
Experimental: Subsequently, whether or not TPO can be replaced with a TPO receptor agonist in culture of human hematopoietic stem cells was examined. Butyzamide, eltrombopag, and avatrombopag are known as TPO receptor agonists. Human hematopoietic stem cells were cultured in the presence of 0.1% recombinant human serum albumin (Albumin Biosciences) or in the presence of PVA in the above-mentioned culture medium having a composition from which TPO was removed and to which 0.1 μM butyzamide, 3 μg/mL eltrombopag, or 3 μM avatrombopag was added. In this experiment, Mpl32D cells were used as human hematopoietic stem cells.

human CD34+ cells [2] = assay: Colony assay in MethoCult H4415 medium with Giemsa staining; type: cell-based; settings: cells after 7 days culture; 20 μM PI3Ka + 0.1 μM butyzamide versus PI3Ka + TPO
Source text: Subsequently, whether or not SCF and TPO can be replaced with PI3Ka and a TPO receptor agonist in the absence of albumin and in the presence of PVA was examined. In the following example, butyzamide was used as a TPO receptor agonist. Purchased human bone marrow CD34+ cells (distributor name, Lonza; product number 2C-101) or CD34+ cells isolated from given fresh umbilical cord blood using microbeads as described above were used in the culture experiment. […] Two weeks later, colonies were picked up, cytospin specimens were prepared, Giemsa staining was performed, and then the types of colonies were determined under a microscope. The number of GEmM colonies per 50 CD34+ cells was counted, and the percentage increase in the number of colonies compared with before culture was obtained.
Further, 100 CD34+ cells obtained in the culture at […] after the start of culture were seeded each on a MethoCult™ H4415 medium, and a colony assay was performed. […] Then, after Giemsa staining was performed for the specimens, the types of colonies were determined under a microscope.

[3] = tested on: human hematopoietic stem cells (CD34+CD38− cells); assay: Proliferation of human hematopoietic stem cells in albumin-free serum-free PVA medium; type: cell-based; settings: no albumin
Experimental: In this example, an assay was performed in which mouse hematopoietic stem cells (KSL cells) and human hematopoietic stem cells (CD34^+CD38^− cells) were allowed to proliferate in a culture medium not comprising albumin. The culture medium was a serum-free medium comprising polyvinyl alcohol (PVA) and not comprising albumin, as described in Wilkinson et al., Nature, 571:117-121, 2019.
Specifically, the culture medium used for culture of mouse hematopoietic stem cells was an F12 medium comprising 1% insulin-transferrin-selenium-ethanolamine (ITSX), 10 mM HEPES, 1% penicillin-streptomycin-glutamine, 100 ng/mL mouse thrombopoietin (mTPO), and 10 ng/mL mouse stem cell factor (mSCF). The medium comprised PVA at the final concentration of 0.1%. The culture medium used for culture of human hematopoietic stem cells was an IMDM medium comprising 1% insulin-transferrin-selenium-ethanolamine (ITSX), 25 mM HEPES, 1% penicillin-streptomycin-glutamine, 100 ng/mL human thrombopoietin (hTPO), and 10 ng/mL human stem cell factor (hSCF). The medium comprised PVA at the final concentration of 0.1%.
Unless otherwise specified, all media used in the following examples were an IMDM medium comprising 1% insulin-transferrin-selenium-ethanolamine (ITSX), 25 mM HEPES, 1% penicillin-streptomycin-glutamine, and PVA (hereinafter, also referred to as “common medium”). Therefore, hereinafter, description of the medium will be focused on components added to the common medium. For example, given that the above-mentioned medium comprises TPO and SCF in addition to the common medium, it is to be referred to as a TPO+SCF medium for the purpose of convenience. […]
Accordingly, human hematopoietic stem cells were cultured in a culture medium comprising 0.3 μM AKTa (name of distributer, Sigma-Aldrich; product number 123871) or 20 μM PI3Ka. Cells were counted after 3 days, 5 days, and 7 days of culture, and the ratios of the number of cells at each time point to the number of cells on the first day of culture, which was standardized as 1, were obtained. […]

[4] = 0.1% recombinant human serum albumin, no TPO
[5] = day 7, 20 μM PI3Ka + TPO 100 ng/mL

Row | Compound | proliferation rate of total cells relative to before start of culture (human CD34+ cells [1]; day 14, added to 20 μM PI3Ka + 0.1 μM TPOago, SR-1 500 nM, UM171 35 nM) | proliferation (change with time in number of cells) (Mpl32D cells; [4]) | proliferation (change with time in number of cells) (Mpl32D cells; PVA, no albumin) | ratio of number of cells at day 7 relative to first day of culture (human CD34+ cells [1]; PVA, no albumin) | GEmM colony forming ability (number of GEmM colonies per 50 CD34+ cells) (human CD34+ cells [2]) | proliferation rate of total cells and CD34+ cells compared with start of culture (human CD34+ cells [1]; day 7, 20 μM PI3Ka + 0.1 μM butyzamide versus 20 μM PI3Ka + TPO 100, PVA, no albumin, no SCF) | proliferation rate of total cells and CD34+ cells relative to start of culture (human CD34+ cells [1]; day 7, PVA, no albumin) | ratio of number of cells to first day of culture ([3]; 3, 5, 7 days, SCF 10 ng/mL + TPO 100 ng/mL, 0.3 μM AKTa or 20 μM PI3Ka) | number of CD34+ cells, with SCF versus without SCF [3, 5] | number of total cells, with SCF versus without SCF [3, 5]
1 | CC(C)n1cnc2c(NCCc3ccc(O)cc3)nc(-c3csc4ccccc34)nc21 [SR-1] | killed cells | – | – | – | – | – | – | – | – | –
2 | O=C(Nc1nc(-c2cc(Cl)cs2)c(N2CCN(C3CCCCC3)CC2)s1)c1cnc(N2CCC(C(=O)O)CC2)c(Cl)c1 [avatrombopag] | – | could support proliferation | low effect | Death of hematopoietic stem cells occurred | – | – | – | – | – | –
3 | CCCOC(c1cccc(-c2csc(NC(=O)c3cc(Cl)c(C=C(C)C(=O)O)c(Cl)c3)n2)c1OC)C(C)(C)C (centres unmarked) [butyzamide, 3-[4-[[[4-[2-methoxy-3-(1-tert-butyl-2-oxapentan-1-yl)phenyl]thiazol-2-yl]amino]carbonyl]-2,6-dichlorophenyl]-2-methylpropenoic acid] | – | could support proliferation | marked proliferative effect | significantly proliferated | could completely replace TPO | could completely replace TPO | increases of cells were not observed | – | – | –
4 | PI3Ka: peptide of amino acid sequence RQIKIWFQNRRMKWKKSDGGYMDMS in which Y is phosphorylated; Tocris product number 1983 (RQIKIWFQNRRMKWKKSDGG[pY]MDMS) | – | – | – | – | – | – | increases of cells were not observed | clearly proliferated | no significant difference | no significant difference
